{"source": "patent US5428048A", "about": "“Aryl-N-hydroxyureas as inhibitors of 5-lipoxygenase and anto-arteriosclerotic agents” (American Home Products Corporation, priority 1993, dated 1995)", "key": {"5-Lipoxygenase": {"biological_target": "T1, 5-Lipoxygenase (Homo sapiens, UniProt P09917)", "T1 construct": "endogenous in cells; host or cells: whole blood of male human donors (results per 10^6 neutrophils)", "T1 sequence (P09917 1-674)": "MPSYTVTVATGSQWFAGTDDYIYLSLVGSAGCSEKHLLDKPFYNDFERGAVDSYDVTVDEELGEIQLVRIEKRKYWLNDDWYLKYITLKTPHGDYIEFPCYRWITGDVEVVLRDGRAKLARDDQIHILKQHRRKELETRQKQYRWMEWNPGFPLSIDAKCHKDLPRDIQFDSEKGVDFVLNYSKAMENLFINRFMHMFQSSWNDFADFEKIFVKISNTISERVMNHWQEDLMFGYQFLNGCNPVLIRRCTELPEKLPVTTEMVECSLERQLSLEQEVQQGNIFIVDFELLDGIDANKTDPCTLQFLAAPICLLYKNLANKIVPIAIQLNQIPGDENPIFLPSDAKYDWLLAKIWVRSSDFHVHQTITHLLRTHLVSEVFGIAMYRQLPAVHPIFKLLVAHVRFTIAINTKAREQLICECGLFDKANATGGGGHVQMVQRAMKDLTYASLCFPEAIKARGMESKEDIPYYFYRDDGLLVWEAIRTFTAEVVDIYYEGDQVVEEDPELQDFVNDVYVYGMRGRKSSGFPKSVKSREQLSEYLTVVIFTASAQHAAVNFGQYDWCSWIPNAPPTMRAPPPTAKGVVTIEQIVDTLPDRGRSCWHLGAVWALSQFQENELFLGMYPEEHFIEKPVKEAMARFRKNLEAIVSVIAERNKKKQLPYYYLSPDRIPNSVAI", "assay": "Inhibition of 5-Lipoxygenase in Human Whole Blood (ionophore A23187-stimulated LTB4)", "format": "cell-based", "description": "1. Inhibition of 5-Lipoxygenase in Human Whole Blood\nBlood is obtained in 50-100 ml quantities from male donors. White blood cell counts and differentials are made. Two ml of blood are placed in a 15 ml polypropylene test tube. Test compounds are solubilized in dimethylsulfoxide and diluted in 1:10 in 10% bovine serum albumin in phosphate buffered saline, pH 7.4 resulting in a final dimethylsulfoxide concentration of 0.1% in the blood. Then, solutions of test compounds are added to the blood in a shaking water bath at 37° C. for 10 minutes prior to the addition of 30 μM calcium ionophore (A23187, Sigma). After ionophore administration, whole blood samples are mixed and incubated for 20 minutes at 37° C. in a shaking water bath. Incubation is terminated by placing samples in an ice bath and immediately adding ethylene glycol-bis-(β-aminoethyl ether)-N, N,N',N'-tetraacetic acid (10 mM). Samples are mixed and centrifuged at 1200×g for 15 minutes at […]. Preparation of samples for evaluation by RIA or ELISA is carded out by the following protocol. Plasma is removed from sample tubes, placed in 15 ml polypropylene test tubes containing 8 ml methanol, and then vortexed to precipitate protein. Samples are stored at -70° C. overnight. The next day, samples are centrifuged at 200×g for 15 minutes at 4° C. to pellet the precipitate. Samples are dried in a Savant SpeedVac Concentrator, Model SVC 200H, reconstituted to original volume with ice cold RIA or ELISA buffer, and stored at -70° C. until assayed. The assay for eicosanoids (LTB4, TxB2, and PGE2) is performed as described by the manufacturer of the [^3 H]-RIA kit or ELISA kit (LTB4 -Amersham, TxB2 and PGE2 - Caymen Chemical).\nThe total eicosanoid level in 2 ml of blood is calculated and reported as ng/10^6 neutrophils. Significance is determined by a one-way analysis of variance with least significant difference (LSD) comparisons to control (p≤0.05) and IC50 's (μM) are determined by regression analysis (Finney, 1978). Drug effects are expressed as percent change from control values."}, "[1]": {"tested_on": "LT-dependent bronchoconstriction", "assay": "Inhibition of Bronchoconstriction in Guinea Pigs Induced by Exogenously Administered Antigen", "format": "in vivo, Male guinea pigs", "description": "4. Inhibition of Brochoconstriction in Guinea Pigs Induced by Exogenously Administered Antigen\nMale guinea pigs (Charles River, Wilmington, Mass.) were sensitized 3-4 weeks prior to antigen challenge by administration of 2 i.m. injections of ovalbumin, 1 into each hind limb (35 mg total). Sensitized animals (500-600 g) were fasted overnight prior to experimentation. Conscious animals were then dosed p.o. with drug or vehicle alone (0.5% Tween 80 in H2 O) at the indicated times prior to antigen challenge, or anesthetized animals were dosed i.v. with drug or vehicle alone (DMSO) 5 min prior to antigen challenge. Animals were anesthetized by urethane (2.8 g/kg i.p.). A carotid artery and jugular vein were cannulated to allow for the monitoring of blood pressure and the administration of drugs, respectively. The trachea was then cannulated and connected to a Harvard Apparatus rodent ventilator (S. Natick, Mass.). Spontaneous respiration was abolished by the administration of succinylcholine (2.5 mg/kg i.v.). The animals were then ventilated with room air at a rate of 65 breaths per min. Airway inflation pressure was measured using a Statham pressure transducer (Gould Instruments, Cleveland, Ohio) connected to the tracheal cannula via a side-arm and recorded on a Grass Instruments recorder (Quincy, Mass.). The tidal volume (approximately 10 cc/kg) was adjusted to give a baseline inflation pressure of 8-10 cm H2 O at end inspiration. Animals were then allowed 20 min to stabilize.\nFollowing the stabilization period, animals were given i.v. injections of pyrilamine (5 mg/kg), propranolol (0.1 mg/kg) and indomethacin (10 mg/kg) at 15, 10 and 5 min, respectively, prior to antigen challenge. This pretreatment results in an LT-dependent bronchoconstriction following antigert challenge, which was accomplished by i.v. administration of ovalbumin (10 mg/kg). Only one bronchoconstriction per animal was induced. End-inspiratory inflation pressure (in cm H2 O over baseline) was measured at 5 min post-antigen challenge. A mean value and standard error for the % inhibition of control bronchoconstriction in each drug-treated group was then calculated."}}}
{"smiles": "NC(=O)N(O)Cc1ccc(OCCc2noc(-c3ccccc3)n2)cc1", "note": "[Example 21, 1-hydroxy-1-[4-[2-(5-phenyl-[1,2,4]-oxadiazol-3-yl)-ethoxy]-benzyl]-urea]", "values": [{"measurement": "inhibition at 1 µM", "setting": "5-Lipoxygenase", "result": 70, "unit": "%"}, {"measurement": "Bronchoconstriction % Inhibition", "setting": "[1]; 10 mg/kg i.v.", "result": 58, "unit": "%"}, {"measurement": "Bronchoconstriction % Inhibition", "setting": "[1]; 10 mg/kg p.o.", "result": 34, "unit": "%"}]}
{"smiles": "Cc1oc(-c2ccccc2)nc1CCOc1ccc(C(C)N(O)C(N)=O)cc1", "note": "(centres unmarked) [Example 4]", "values": [{"measurement": "inhibition at 10 µM", "setting": "5-Lipoxygenase; 10 μM", "result": 60, "unit": "%"}, {"measurement": "Bronchoconstriction % Inhibition", "setting": "[1]; 25 mg/kg aerosol", "result": 51, "unit": "%"}]}
{"smiles": "Cc1oc(-c2ccccc2)nc1CCOc1ccc(CN(O)C(N)=O)cc1", "note": "[Example 1]", "values": [{"measurement": "inhibition at 1 µM", "setting": "5-Lipoxygenase", "result": 55, "unit": "%"}, {"measurement": "Bronchoconstriction % Inhibition", "setting": "[1]; 20 mg/kg i.v.", "result": 66, "unit": "%"}, {"measurement": "Bronchoconstriction % Inhibition", "setting": "[1]; 25 mg/kg aerosol", "result": 67, "unit": "%"}, {"measurement": "Bronchoconstriction % Inhibition", "setting": "[1]; 25 mg/kg p.o.", "result": 25, "unit": "%"}]}
{"smiles": "Cc1oc(-c2ccc(C(F)(F)F)cc2)nc1CCOc1ccc(CN(O)C(N)=O)cc1", "note": "[Example 13, 1-Hydroxy-1-[4-[2-[5-methyl-2(4-trifluoromethyl-phenyl)-oxazol-4-yl]-ethoxy]benzyl]-urea]", "values": [{"measurement": "inhibition at 1 µM", "setting": "5-Lipoxygenase", "result": 47, "unit": "%"}, {"measurement": "Bronchoconstriction % Inhibition", "setting": "[1]; 20 mg/kg i.v.", "result": 23, "unit": "%"}]}
